Data taken from PubChem BioAssay (NCI).
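These data come from cells grown in 96-well plates and exposed to compound for 48 hours at five concentrations. Abbreviation: GI50, concentration required for 50% inhibition of growth. Definition used: TGI = concentration required for complete inhibition of growth.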

Experiments:
Assay in all cases: NCI tumour cell line growth inhibition, 48 h
[1] = tested on: KM12 colon
[2] = tested on: NCI-H460 lung
[3] = tested on: SF-539 CNS
[4] = tested on: MDA-MB-435
[5] = tested on: SF-295 CNS
[6] = tested on: SK-MEL-28 melanoma
[7] = tested on: MALME-3M melanoma
[8] = tested on: CCRF-CEM leukemia
[9] = tested on: DU-145 prostate
[10] = tested on: IGROV1 ovarian
[11] = tested on: HOP-92 NSCLC
[12] = tested on: SNB-75 CNS
[13] = tested on: HS 578T breast
[14] = tested on: UACC-62 melanoma
[15] = tested on: HT29 colon
[16] = tested on: SF-268 CNS
[17] = tested on: UACC-257 melanoma
[18] = tested on: NCI-H23 lung
[19] = tested on: SK-MEL-2 melanoma
[20] = tested on: HCT-15 colon
[21] = tested on: MOLT-4 leukemia
[22] = tested on: UO-31 renal
[23] = tested on: SNB-19 CNS
[24] = tested on: SN12C renal
[25] = tested on: OVCAR-4 ovarian
[26] = tested on: OVCAR-3 ovarian
[27] = tested on: TK-10 renal
[28] = tested on: SK-OV-3 ovarian
[29] = tested on: ACHN renal
[30] = tested on: BT-549 breast
[31] = tested on: OVCAR-5 ovarian
[32] = tested on: HL-60(TB) leukemia
[33] = tested on: PC-3 prostate
[34] = tested on: OVCAR-8 ovarian
[35] = tested on: M14 melanoma
[36] = tested on: COLO 205 colon
[37] = tested on: EKVX NSCLC
[38] = tested on: MCF7 breast
[39] = tested on: HOP-62 NSCLC
[40] = tested on: RPMI-8226 leukemia
[41] = tested on: RXF 393 renal
[42] = tested on: NCI-H522 lung
[43] = tested on: SK-MEL-5 melanoma
[44] = tested on: A549 NSCLC
[45] = tested on: HCC-2998 colon
[46] = tested on: NCI-H226 lung
[47] = tested on: MDA-MB-231 breast
[48] = tested on: U251 CNS
[49] = tested on: CAKI-1 renal
[50] = tested on: SW-620 colon
[51] = tested on: HCT-116 colon
[52] = tested on: LOX IMVI melanoma
[53] = tested on: K-562 leukemia
[54] = tested on: T-47D breast
[55] = tested on: A498 renal
[56] = tested on: 786-0 renal
[57] = tested on: NCI/ADR-RES ovarian
[58] = tested on: SR leukemia

`NCCOc1ncccc1/C=C1\C2C=CC=CC2C2C=CC(F)=CC12` (stereo unspecified) showed a GI50 [1] of 1.47 µM, a TGI [1] of 2.97 µM and a GI50 [2] of 0.283 µM. It also gave a TGI [2] of 1.46 µM, a GI50 [3] of 1.31 µM and a TGI [3] of 2.61 µM. It also gave a GI50 [4] of 1.81 µM, a TGI [4] of 3.35 µM and a GI50 [5] of 0.467 µM. The TGI [5] was 1.81 µM, the GI50 [6] was 1.51 µM and the TGI [6] was 2.9 µM. It also gave a GI50 [7] of 1.42 µM, a TGI [7] of 3.17 µM and a GI50 [8] of 0.26 µM. The TGI [8] was 5.08 µM, the GI50 [9] was 0.531 µM and the TGI [9] was 1.99 µM. The GI50 [10] was 1.16 µM, the TGI [10] was 2.47 µM and the GI50 [11] was 0.258 µM. The TGI [11] was 2.19 µM, the GI50 [12] was 1.5 µM and the TGI [12] was 5.67 µM. The GI50 [13] was 2.55 µM, the TGI [13] was 13.1 µM and the GI50 [14] was 1.36 µM. For the same compound, the TGI [14] was 2.88 µM, the GI50 [15] was 1.45 µM and the TGI [15] was 3.29 µM. The GI50 [16] was 1.41 µM, the TGI [16] was 11 µM and the GI50 [17] was 1.76 µM. For the same compound, the TGI [17] was 3.86 µM, the GI50 [18] was 0.666 µM and the TGI [18] was 3.01 µM. The GI50 [19] was 2.03 µM, the TGI [19] was 4.36 µM and the GI50 [20] was 0.757 µM. For the same compound, the TGI [20] was 2.28 µM, the GI50 [21] was 0.232 µM and the TGI [21] was 1.1 µM. The GI50 [22] was 1.31 µM, the TGI [22] was 3.06 µM and the GI50 [23] was 0.816 µM. The TGI [23] was 14.1 µM, the GI50 [24] was 0.333 µM and the TGI [24] was 1.35 µM. The GI50 [25] was 2.7 µM, the TGI [25] was 10.1 µM and the GI50 [26] was 1.45 µM. For the same compound, the TGI [26] was 2.77 µM, the GI50 [27] was 1.96 µM and the TGI [27] was 4.31 µM. For the same compound, the GI50 [28] was 0.735 µM, the TGI [28] was 2.33 µM and the GI50 [29] was 0.347 µM. It also gave a TGI [29] of 1.4 µM, a GI50 [30] of 2.64 µM and a TGI [30] of 10.8 µM. The GI50 [31] was 1.69 µM, the TGI [31] was 3.4 µM and the GI50 [32] was 0.334 µM. The TGI [32] was 1.42 µM, the GI50 [33] was 1.15 µM and the TGI [33] was 2.45 µM. For the same compound, the GI50 [34] was 1.19 µM, the TGI [34] was 3.48 µM and the GI50 [35] was 1.35 µM. For the same compound, the TGI [35] was 3.05 µM, the GI50 [36] was 1.11 µM and the TGI [36] was 2.63 µM. It also gave a GI50 [37] of 1.2 µM, a TGI [37] of 3.05 µM and a GI50 [38] of 0.394 µM. The TGI [38] was 1.73 µM, the GI50 [39] was 1.06 µM and the TGI [39] was 2.68 µM. The GI50 [40] was 1.58 µM, the TGI [40] was 3.85 µM and the GI50 [41] was 1.57 µM. For the same compound, the TGI [41] was 3.17 µM, the GI50 [42] was 1.69 µM and the TGI [42] was 4.09 µM. For the same compound, the GI50 [43] was 1.47 µM, the TGI [43] was 2.79 µM and the GI50 [44] was 0.268 µM. For the same compound, the TGI [44] was 2.04 µM, the GI50 [45] was 1.25 µM and the TGI [45] was 2.57 µM. For the same compound, the GI50 [46] was 1.02 µM, the TGI [46] was 2.47 µM and the GI50 [47] was 1.64 µM. For the same compound, the TGI [47] was 3.26 µM, the GI50 [48] was 0.622 µM and the TGI [48] was 2.06 µM. The GI50 [49] was 0.429 µM, the TGI [49] was 1.87 µM and the GI50 [50] was 1.07 µM. For the same compound, the TGI [50] was 2.66 µM, the GI50 [51] was 1.13 µM and the TGI [51] was 2.6 µM. The GI50 [52] was 0.583 µM, the TGI [52] was 1.96 µM and the GI50 [53] was 1.01 µM. The TGI [53] was 3.13 µM, the GI50 [54] was 2.07 µM and the TGI [54] was 6.15 µM. The GI50 [55] was 1.53 µM and the TGI [55] was 3.49 µM.

`COc1cc2c(cc1OCCCCOc1cc3nc(C)nc(Cl)c3cc1OC)N=C[C@@H]1CCCN1C2=O` was tested, and the TGI [1] was 4.44 µM, the TGI [2] was 45.6 µM and the TGI [3] was 4.2 µM. The TGI [4] was 2.97 µM, the TGI [5] was 6.76 µM and the TGI [6] was 5.54 µM. For the same compound, the TGI [7] was 3.4 µM, the TGI [9] was 13.2 µM and the TGI [10] was 4.6 µM. It also gave a TGI [11] of 5.52 µM, a TGI [12] of 3.34 µM and a TGI [13] of 5.63 µM. The TGI [14] was 2.8 µM, the TGI [15] was 10.2 µM and the TGI [16] was 8.44 µM. The TGI [17] was 4.04 µM, the TGI [18] was 3.37 µM and the TGI [19] was 3.6 µM. The TGI [20] was 8.78 µM, the TGI [22] was 4.73 µM and the TGI [23] was 33.1 µM. For the same compound, the TGI [24] was 4.8 µM, the TGI [25] was 11.1 µM and the TGI [26] was 4.7 µM. The TGI [27] was 6.04 µM, the TGI [28] was > 100 µM and the TGI [29] was 8.82 µM. It also gave a TGI [31] of 5.3 µM, a TGI [56] of 12.4 µM and a TGI [32] of 7.43 µM. For the same compound, the TGI [33] was 8.91 µM, the TGI [34] was 5.48 µM and the TGI [35] was 3.5 µM. For the same compound, the TGI [36] was 45.4 µM, the TGI [37] was 19.4 µM and the TGI [38] was > 100 µM. The TGI [39] was 7.24 µM, the TGI [41] was 4.64 µM and the TGI [42] was 2.12 µM. For the same compound, the TGI [43] was 3.4 µM, the TGI [44] was 7.56 µM and the TGI [57] was 6.87 µM. It also gave a TGI [46] of 4.07 µM, a TGI [47] of 3.43 µM and a TGI [48] of 6.88 µM. The TGI [58] was 1.96 µM, the TGI [49] was 5.82 µM and the TGI [50] was 10.1 µM. The TGI [51] was 5.59 µM, the TGI [52] was 3.04 µM and the TGI [53] was 4.79 µM. For the same compound, the TGI [54] was 31.8 µM.

`CCOC(=O)C1C=C1C(C)(C)O` (stereo unspecified) was tested, and the TGI [1] was > 10 µM, the TGI [2] was > 10 µM and the TGI [3] was > 10 µM. The TGI [4] was > 10 µM, the TGI [5] was > 10 µM and the TGI [6] was > 10 µM. The TGI [7] was > 10 µM, the TGI [8] was > 10 µM and the TGI [9] was > 10 µM. For the same compound, the TGI [10] was > 10 µM, the TGI [11] was > 10 µM and the TGI [12] was > 10 µM. For the same compound, the TGI [13] was > 10 µM, the TGI [15] was > 10 µM and the TGI [16] was > 10 µM. For the same compound, the TGI [17] was > 10 µM, the TGI [18] was > 10 µM and the TGI [19] was > 10 µM. For the same compound, the TGI [20] was > 10 µM, the TGI [21] was > 10 µM and the TGI [22] was > 10 µM. For the same compound, the TGI [23] was > 10 µM, the TGI [24] was > 10 µM and the TGI [26] was > 10 µM. For the same compound, the TGI [27] was > 10 µM, the TGI [28] was > 10 µM and the TGI [29] was > 10 µM. For the same compound, the TGI [30] was > 10 µM, the TGI [31] was > 10 µM and the TGI [56] was > 10 µM. For the same compound, the TGI [32] was > 10 µM, the TGI [33] was > 10 µM and the TGI [34] was > 10 µM. For the same compound, the TGI [35] was > 10 µM, the TGI [37] was > 10 µM and the TGI [38] was > 10 µM. For the same compound, the TGI [39] was > 10 µM, the TGI [40] was > 10 µM and the TGI [41] was > 10 µM. For the same compound, the TGI [43] was > 10 µM, the TGI [44] was > 10 µM and the TGI [46] was > 10 µM. The TGI [48] was > 10 µM, the TGI [58] was > 10 µM and the TGI [50] was > 10 µM. The TGI [52] was > 10 µM, the TGI [53] was > 10 µM and the TGI [54] was > 10 µM. The TGI [55] was > 10 µM.
